Laboratory results reported in PMC3003687, “α-Galactosylceramide Analogs with Weak Agonist Activity for Human iNKT Cells Define New Candidate Anti-Inflammatory Agents” (PLoS ONE, 2010).

Legend:
Human iNKT TCRs = Human iNKT TCRs (Homo sapiens, UniProt A0A075B6N4+A0A0B4J240+P15813); assay: Equilibrium binding of analog-loaded hCD1d tetramers to iNKT cell clones
Text: For flow cytometric analysis, 6B11 (Vα24Jα18 specific) and mAbs specific for human CD3, CD4, CD8α, CD19, CD40L (CD154), CD56, CD69, GM-CSF & IFNγ were obtained from BD Biosciences. IL-4 and IL-13 specific mAbs were from Biolegend. Vα24 (C15) and Vβ11 (C21) specific mAb were from Immunotech. For antibody blocking in culture assays, non-specific isotype matched control, IL-2, IFNγ, IL-12p70 and CD40L specific mAbs without preservatives were obtained from BD Biosciences and IL-18 specific mAb from Medical & Biological Laboratories (MBL, Nagoya, Japan). Phycoerythrin and allophycocyanin labeled human CD1d tetramers were prepared in our laboratory as previously described. Curves of tetramer equilibrium binding constants and graphs were plotted using the Graphpad Prism Software (Version 5). KD values were calculated using the function non-linear fit (hyperbola, one binding site).
(§1) To characterize in more detail the iNKT cell TCR recognition of αGalCer analogs presented by human CD1d, we generated soluble and fluorescent tetrameric hCD1d molecules loaded with each of the glycolipid analogs. […] This was similar to the previously reported failure of mouse CD1d tetramer loaded with lysosulfatide to bind detectably to murine non-invariant and sulfatide specific NKT cells, despite a clear reactivity to this lipid upon presentation by APCs; [40]. […] To quantitate their binding avidities to iNKT cell TCRs, we used titration of analog-loaded hCD1d tetramers to determine equilibrium dissociation constants (KD), which are inversely proportional to avidity (Figure 3A and 3B).
(§2) Figure 3 Characterization of human iNKT cell TCR interactions with analog-loaded tetramers. (A) iNKT cell clones were stained with titrated amounts of hCD1d tetramers loaded with the indicated glycolipids (abbreviations as in legend to Figure 1), and the measured MFI values are plotted for selected glycolipids. (B) The equilibrium dissociation constants (KD, inversely proportional to TCR avidity) were determined as the concentrations of tetramers required to yield 50% of maximal binding. Data shown were obtained using the CD4^+ iNKT cell clone HDD3, and similar results (not shown) were obtained with a second CD4^+ clone (HDD11) and a CD4^−8^− double negative iNKT cell clone (HDE3). (C) Analysis of iNKT cell clones labeled with 20 nM of hCD1d tetramers which were loaded with variable excesses of analog to constant hCD1d (25 to 1000 fold molar excess of glycolipid to hCD1d protein). The measured MFI values were normalized as the percent of the maximum staining intensity obtained with each analog loaded tetramer. Data presented were generated with HDD3 (CD4+) iNKT cell clone, and similar results (not shown) were obtained with HDE3 (DN) clone.

[1] = system: iNKT cells in PBMCs from healthy donors; assay: Ex vivo staining of PBMCs from healthy donors with analog-loaded hCD1d tetramers; type: cell-based, human
Text: Our panel of clones might be limited to iNKT cells able to expand upon PHA stimulation and might be representative of a fraction only of the iNKT cell repertoire. […] The frequencies of iNKT cells measured using tetramers loaded with N-aromatic branched analogs were lower in some or all PBMCs tested. A lower detection might be explained by weaker efficiency of staining, since lower MFI values were also seen with iNKT cell clones stained with tetramers loaded with these glycolipids.
Figure 4 Ex vivo analysis of PBMC with CD1d tetramers loaded with αGalCer analogs. (A) Flow cytometric analyses were performed after labeling of PBMCs from healthy donors with hCD1d tetramers loaded with each of the indicated glycolipids. Representative dot plots generated with PBMCs from one normal donor, with the analog tested indicated at the top of each plot and the percentages of tetramer^+ CD3^+ cells indicated in the top right quadrants. The dot plots show events gating as live lymphocytes (PI negative and FSC/SSC gated lymphocytes). (B) Comparison of tetramer^+ cell frequencies in PBMC from three different donors. The frequencies of cells specifically stained with hCD1d tetramers loaded with the indicated glycolipids (or vehicle (Veh) only (i.e., DMSO)) are shown as the percentage of total iNKT cells (i.e., cells staining with mAb 6B11^+, specific for the invariant TCRα chain of iNKT cells). Similar results were obtained for three additional PBMC donors (not shown). TEXT PRINTED IN THE PICTURE: (A) Vehicle: 0.03 | (A) KRN7000: 0.56 | (A) C20:2: 0.52 | (A) C20:4: 0.58 | (A) Tol: 0.16 | (A) DFB: 0.56 | (A) BB: 0.29 | (A) AD: 0.49 DOUBTS OF THE COPYIST ABOUT THIS PICTURE: Panel A: the numbers in the upper right quadrants are printed without a measure or unit; only the axes (hCD1d tetramer / CD3) are printed

human iNKT cells = conditions: cited from earlier work
human iNKT cell clones = assay: Cytokine responses of iNKT cell clones, Hela-CD1d cells compared with monocyte-derived DC as APC; type: cell-based; conditions: limited analog concentrations
Text: CD1d-transfected Hela cells might not be representative of the presentation by DCs, so we performed a comparative analysis, with more limited analog concentrations, between Hela-CD1d cells and monocyte-derived DC (Supplementary Figure S5). […] However we observed a higher cytokine levels produced upon stimulation with Hela cells, which can be explained by a higher CD1d expression.
Supplementary file pone.0014374.s005.tif: Figure S5 Comparison of cytokine responses of human iNKT cell clones between CD1d-transfected HeLa cells and Dendritic Cells, with a limited range of analog concentrations. CD1d-transfected HeLa cells (black bars) and monocyte-derived DCs (white bars) were incubated overnight in parallel with increasing concentrations of KRN7000, C20:2 (tested from left to right at 0.1, 1, 10 and 100 nM,) and higher concentrations of other analogs (10, 100 nM, 1 and 10 µM), then used as APC for iNKT cell stimulation. After 24 h of co-culture, supernatants were harvested, and cytokine levels were measured by ELISA. The sensitivity of detection was 27.4 pg/mL for IL-4 and 82.3 pg/mL for IL-13 and IFNγ. The data shown were generated with a CD4+ iNKT cell clone (HDD3) and a double negative (DN, HDE3). (0.12 MB TIF) Click here for additional data file.

hCD1d = molecular target: T1, hCD1d (Homo sapiens, UniProt P15813); assay: Loading of hCD1d tetramers with variable glycolipid to CD1d ratios; type: binding; conditions: 20 nM tetramers, 25 to 1000 fold molar excess of glycolipid to hCD1d, HDD3 clone
T1 construct: we generated soluble and fluorescent tetrameric hCD1d molecules loaded with each of the glycolipid analogs; made in house
T1 sequence (P15813 20-301 limits assumed): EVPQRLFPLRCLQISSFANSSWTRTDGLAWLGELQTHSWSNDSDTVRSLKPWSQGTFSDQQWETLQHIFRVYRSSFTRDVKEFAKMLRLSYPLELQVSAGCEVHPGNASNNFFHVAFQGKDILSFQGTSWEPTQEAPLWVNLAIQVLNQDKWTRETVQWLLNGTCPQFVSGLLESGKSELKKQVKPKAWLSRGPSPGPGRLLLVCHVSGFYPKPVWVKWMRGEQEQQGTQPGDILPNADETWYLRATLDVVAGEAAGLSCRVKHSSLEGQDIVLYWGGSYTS
T1 sequence (P61769 21-119 partner): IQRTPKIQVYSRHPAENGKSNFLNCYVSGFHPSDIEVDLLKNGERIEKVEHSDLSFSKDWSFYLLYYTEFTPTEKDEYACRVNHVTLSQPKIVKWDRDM
Text: as §1, §2

Human iNKT TCRs, sequence (P15813 20-301): as the sequence (P15813 20-301 limits assumed) above
Human iNKT TCRs, sequence (P01848 whole entry, further chain): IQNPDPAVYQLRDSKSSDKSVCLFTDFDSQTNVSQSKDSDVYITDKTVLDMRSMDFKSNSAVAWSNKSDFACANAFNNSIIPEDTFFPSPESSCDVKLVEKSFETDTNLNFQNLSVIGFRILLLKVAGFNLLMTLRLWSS
Human iNKT TCRs, sequence (A0A0B4J240 22-114): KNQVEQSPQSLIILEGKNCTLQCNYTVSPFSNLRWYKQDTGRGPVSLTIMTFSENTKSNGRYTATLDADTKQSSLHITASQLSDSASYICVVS
Human iNKT TCRs, sequence (P61769 21-119, further chain): as the sequence (P61769 21-119 partner) above
Human iNKT TCRs, sequence (A0A075B6N4 22-114): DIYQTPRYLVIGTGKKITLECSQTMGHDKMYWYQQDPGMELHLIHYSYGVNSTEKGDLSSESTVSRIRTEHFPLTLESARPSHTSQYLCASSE

Structure (SMILES)	avidity of human iNKT TCRs for analog in complex with hCD1d (Human iNKT TCRs)	iNKT cell frequencies with loaded tetramers versus staining with Vα24Jα18 specific Ab 6B11 [1]	agonist activity for human iNKT cells (human iNKT cells)	agonist strength with Hela-CD1d cells and DC (human iNKT cell clones)	lipid excess at which tetramers were efficiently loaded (hCD1d)
CCCCC/C=C\C/C=C\CCCCCCCCCC(=O)N[C@@H](CO[C@H]1O[C@H](CO)[C@H](O)[C@H](O)[C@H]1O)[C@H](O)[C@H](O)CCCCCCCCCCCCCC [C20:2]	strong avidity	Comparable iNKT cell frequencies	strong agonist	strong agonists	
CCCCC/C=C\C/C=C\C/C=C\C/C=C\CCCC(=O)N[C@@H](CO[C@H]1O[C@H](CO)[C@H](O)[C@H](O)[C@H]1O)[C@H](O)[C@H](O)CCCCCCCCCCCCCC [C20:4]	strong avidity	Comparable iNKT cell frequencies			
CCCCCCCCCCCCCCCCCCCCCCCCCC(=O)N[C@@H](CO[C@H]1O[C@H](CO)[C@H](O)[C@H](O)[C@H]1O)[C@H](O)[C@H](O)CCCCCCCCCCCCCC [KRN7000, reference compound]	strong avidity	Comparable iNKT cell frequencies		strong agonists	25–50 fold
